In patent US11186610B2, “Crystal of glutathione trisulfide dihydrate and method for producing same” (KYOWA HAKKO BIO CO., LTD., priority 2016, dated 2021):

Experiment: Hygroscopicity / storage stability: weight change on storage at 40° C. and 75% relative humidity
Type: physicochemical
Details: for Weight change with the elapse of time (in words): storage 0-4 hours at 40° C.
Experimental: 1 g of the crystal of glutathione trisulfide dihydrate produced in Example 2 was dissolved in water, and the volume was made up to 100 mL. The aqueous solution was filtered with a 0.45 μm of filter and then lyophilized to obtain a whitish transparent powder.
Subsequently, hygroscopicity of the obtained non-crystalline amorphous form of glutathione trisulfide and the crystal of glutathione trisulfide dihydrate produced in Example 2 was compared.
About 100 mg of each sample was weighed with a precise balance and then filled in a glass container, and after storage in THE051A (manufactured by Advantec Toyo Kaisha, Ltd.) under conditions of 40° C. and 75% relative humidity, the sample was weighed again to calculate a weight change rate. The sample weight after each elapsed time was measured with respect to 100% weight at the start of test.

[1] = as compared with the non-crystalline amorphous form, 40° C.

| Hygroscopicity (in words) [1] | Storage stability (in words) [1] | Sample weight with respect to 100% weight at the start of test (elapsed time 0 hour, 40° C.) [%] | Sample weight with respect to 100% weight at the start of test (elapsed time 0.5 hour, 40° C.) [%] | Sample weight with respect to 100% weight at the start of test (elapsed time 1 hour, 40° C.) [%] | Sample weight with respect to 100% weight at the start of test (elapsed time 2 hours, 40° C.) [%] | Sample weight with respect to 100% weight at the start of test (elapsed time 4 hours, 40° C.) [%] | Weight change with the elapse of time (in words) | Structure (SMILES) |
| --- | --- | --- | --- | --- | --- | --- | --- | --- |
| low hygroscopicity | excellent storage stability | 100.0 | 100.0 | 100.0 | 100.0 | 100.0 | almost not changed | N[C@@H](CCC(=O)N[C@@H](CSSSC[C@H](NC(=O)CC[C@H](N)C(=O)O)C(=O)NCC(=O)O)C(=O)NCC(=O)O)C(=O)O.O.O [crystal of dehydrate, glutathione trisulfide dihydrate] |
| – | – | 100.0 | 106.7 | 107.7 | 108.7 | 108.7 | increases with the elapse of time | N[C@@H](CCC(=O)N[C@@H](CSSSC[C@H](NC(=O)CC[C@H](N)C(=O)O)C(=O)NCC(=O)O)C(=O)NCC(=O)O)C(=O)O [non-crystalline amorphous form, glutathione trisulfide] |
